Data set [1] has as its system DNA. The data set is described as follows: Tm change due to pyrene conjugation, against DNA. The conditions noted are these: 100 mM Na+, 10 nM phosphate, 0.1 mM EDTA, pH 7, 4 μM strand concentration. It counts as binding. The procedure:
(§1) Changes in Tm due to pyrene conjugation were evaluated against both DNA and RNA. Tm was measured in 100 mM Na^+, 10 nM phosphate, 0.1 mM EDTA, pH 7 at 4 μM strand concentration.

Data set [2] concerns RNA. As to the kind of experiment: Tm change due to pyrene conjugation, against RNA. It counts as binding. The conditions noted are these: 100 mM Na+, 10 nM phosphate, 0.1 mM EDTA, pH 7, 4 μM strand concentration. The procedure: as §1

Turning to “5′-GCG-TGU*-CTG-CG (5'-GCG-TGU*-CTG-CG; 2'-O-aminohexyl uridine linker, as printed in the source, key not given here) [Oligomer 52, U* from 2′-O-[hexyl-(Ω-N-phthalimido)amino]uridine amidite; amino linker]”, the “Tm v. DNA” value in data set [1] turned out to be 50.9 °C. In addition, the “Tm v. RNA” value in data set [2] amounted to 55.5 °C.

These data come from patent US20040142899A1, “Compositions and methods for enhanced biostability and altered biodistribution of oligonucleotides in mammals” (ISIS Pharmaceuticals, Inc., priority 1990, published 2004).
